Legend:
[1] = design: method as in earlier work; details: high-dose group, rats; cited from earlier work
CSF Aβ42 [2] = tested on: CSF Aβ42; design: method as in PMID 22072214; details: dog, single dose of 80 mg/kg; cited from earlier work
plasma Aβ42 = tested on: plasma Aβ42; design: method as in earlier work; details: human, 400 mg dose; cited from earlier work
[3] = cited from earlier work
γ-secretase = target: T1, γ-secretase (Homo sapiens, UniProt P49768); assay: Cellular Aβ42 lowering in SKNBE2 human neuroblastoma cells carrying hAPP 695 wild-type; format: cell-based; details: cellular assay, determined internally
T1 construct: screening was carried out using SKNBE2 human neuroblastoma cells carrying the hAPP 695 wild-type; endogenous in cells; host or cells: SKNBE2 human neuroblastoma cells carrying hAPP 695 wild-type

[4] = Free fraction in brain (brain tissue binding, Fub); format: in vitro ADME
CSF Aβ42 [5] = assay: Dog model combining PK/PD data with early observations of liver toxicity; format: in vivo; details: 20 mg/kg p.o.
Procedure: (§1) For the cellular in vitro activity of our own compounds, screening was carried out using SKNBE2 human neuroblastoma cells carrying the hAPP 695 wild-type as described in [15]. For a description of the mouse in vivo experiments, see references; for details on the dog in vivo experiments, see [17].
(§2) Both compounds have been tested in advanced animal models, including repeated dosing in rat and dog. […] Based on these findings, further development was halted. Since then, the dog model combining PK/PD data with early observations of liver toxicity is routinely used in our discovery program to triage compounds [17]. Both JNJ-40418677 and JNJ-42601572 contain a considerable number of conjugated aromatic rings and are characterized by high lipophilicity and molecular weight. In recent years a number of publications have appeared relating such properties with a low probability of success in clinical development. Catchy phrases like “molecular obesity” and “escape from flatland” have been used to describe the issues associated with high molecular weight and number of (hetero) aromatic rings in molecules. Based on analysis of compound properties and their attrition or success in (pre)clinical development, guidelines have been formulated and proposed which can be applied during optimization efforts in medicinal chemistry programs to strive towards more drug-like compounds. The concept of ligand efficiency (LE) is now routinely applied in the drug discovery process. It is defined as the binding energy towards a biological target per (heavy = nonhydrogen) atom in a compound. Since most assays are not directly measuring binding energy, IC50 values are often used to make a relative comparison of the LE of compounds. By working towards a high LE, molecular weight can be kept in control while optimizing pharmacological activity. […]

[6] = as above; format: in vivo
Procedure: as §1, §2

[7] = Limited tolerance study in rats; format: in vivo; details: two-week daily dose of 200 mg/kg
plaque load = tested on: plaque load; design: method as in PMID 21232036; details: chronic treatment of transgenic mice, exposure below concentrations required for Aβ42 reduction after a single dose; cited from earlier work
[8] = Free fraction in plasma (plasma protein binding); format: in vitro ADME
[9] = design: method as in PMID 22072214; details: repeated dosing in rat and dog; cited from earlier work
brain Aβ42 = tested on: brain Aβ42; design: method as in PMID 22429469; details: 100 mg/kg oral dose; cited from earlier work
[10] = design: method as in PMID 22468891; details: Phase III clinical trials; cited from earlier work

In the case of COc1cc(/C=C2\CCCN([C@@H](C)c3ccc(F)cc3)C2=O)ccc1-n1cnc(C)c1 [Compound 3], the lenticular opacity [1] is given as “lenticular opacity was observed”, the “gene-expression profile in liver tissue” value (CSF Aβ42 [2]) is given as “large changes in gene-expression profile” and the liver parameters (CSF Aβ42 [2]) is given as “liver parameter changes”. The “maximum reduction of plasma Aβ42 levels” value (plasma Aβ42) was ~ 50%.

For C[C@@H](C(=O)O)c1ccc(-c2ccccc2)c(F)c1 [Compound 2, tarenflurbil], the “tolerability in clinical trials” value ([3]; high dosage) is given as “well tolerated” and the “phase III clinical trial outcome” value ([3]; phase III) is given as “negative results”.

For COc1nc(-c2nc3n(n2)CCO[C@H]3c2ccccc2OC(F)(F)F)ccc1-n1cnc(C)c1 [Compound 16], the IC50 (γ-secretase) was 0.056 µM, the fraction unbound [4] was 0.039 and the “bilirubin or ALT levels” value (CSF Aβ42 [5]) was “no increases in bilirubin or ALT levels were observed”. For the same compound, the concentration at 4 h ([6]; CSF, 20 mg/kg oral, 4 h, read-out: CSF compound concentration) was 0.524 ± 0.062 µM, the Cmax ([6]; plasma, po, 20 mg/kg) was 24 ± 3 µM and the “signs of liver toxicity” value [7] was “did not lead to overt signs of liver toxicity”.

In the case of CC(C)C[C@H](C(=O)O)c1cc(-c2ccc(C(F)(F)F)cc2)cc(-c2ccc(C(F)(F)F)cc2)c1 [Compound 4], the “effect on plaque load” value (plaque load) is given as “preventive effect on plaque load”, the fraction unbound [8] is given as < 0.001 and the fraction unbound [4] is given as < 0.001. For the same compound, the “liver toxicity signs (bilirubin and ALT/AST increases)” value [9] was “early signs of liver toxicity were noted”.

In the case of COc1nc(C(=O)N[C@H]2COc3ccc(Cl)c(F)c32)ccc1-n1cnc(C)c1 [Compound 15], the “lowering of Aβ42 levels in Guinea pig brain” value (brain Aβ42) is given as 36%.

In the case of CC(C)[C@H](O)C(=O)N[C@@H](C)C(=O)N[C@@H]1C(=O)N(C)CCc2ccccc21 [Compound 1, semagacestat], the effect on cognition [10] is listed as “statistically significant decline in cognition” and the “risk of skin cancer” value [10] is listed as “increased risk of skin cancer”.

From paper PMC3534213, “γ-Secretase Modulators: Can We Combine Potency with Safety?” (International Journal of Alzheimer's Disease, 2012)
